Assay results taken from patent US12209112B2, “Methods of preventing or treating diseases, conditions, or disorders associated with chemotherapy” (The Chinese University of Hong Kong, priority 2022, dated 2025).
Where two headings read alike, the source gives them in different places.

Columns and labels:
hESC-CMs [1] = assay: α-actinin immunostaining for sarcomeric integrity; type: cell-based, human
Procedure: hESC-CMs were permeabilized using 0.1% Triton X-100 (Thermo Fisher Scientific, USA). After permeabilizing for 15 minutes, cells were washed three times in PBS, and further permeabilization was blocked by incubating cells in PBS with 10% FBS (Hyclone, USA) for 1 hour at room temperature. Cells were incubated with the primary anti-actinin antibody (1:400) (Abcam, UK) and diluted in PBS with 10% FBS overnight. Cells were then washed three times with PBS and incubated with a goat anti-mouse IgG1 secondary antibody (1:1000 diluted in PBS with 10% FBS) (Thermo Fisher Scientific, USA) for 1 hour at room temperature. Finally, cells were washed twice with PBS and mounted using ibidi mounting medium with DAPI (Ibidi, Germany). Microscopic images were acquired using the DMi8s Research Inverted Thunder Imager Live Cell System (Leica, Germany) at 20×, 40×, and 100× magnification.

hESC-CMs [2] = assay: Real-time PCR of genes important for mitochondrial function; type: cell-based, human
Procedure: RNA was extracted using TRIzol™ Reagent (Thermo Fisher Scientific, USA) as per manufacturer's protocol. RNase-free reagents and consumables were used. RNA concentration and A260/280 ratio were determined using Synergy HTX Multi-Mode microplate reader (Agilent Technologies, USA).
cDNA was synthesized using the PrimeScript™ RT Master Mix (Takara, Japan) for real-time quantitative polymerase chain reaction (qPCR). Briefly, reverse transcription used 2 μl of 5× PrimeScript™ RT Master Mix, 0.5 μg of total RNA, and RNase-free dH2O added to total mixture volume of 10 μl. The reaction was carried out at 37° C. for 15 minutes and 85° C. for 5 seconds.
qPCR was performed using SYBR Green Master Mix (Promega, USA) as per manufacturer's protocol. A total reaction volume of 10 μl included 5 μl GoTaq® qPCR Master Mix 2×, 0.3 μl 10 nmol/L primers mix, and 30 ng cDNA template. The qPCR condition was: 1 cycle of 95° C. for 2 minutes, 40 cycles of 95° C. for 3 seconds, and 60° C. for 30 seconds. Expression level of genes was quantified using the 2^−ΔΔCT method on a ABI QuantStudio 12-Flex QPCR System W/96 Fast & 384 (Thermo Fisher Scientific, USA). Primer sequences used were summarized as follows for the respective gene sequences (Table 2).

hESC-CMs [3] = assay: Mitochondrial morphology analysis (MitoTracker Deep Red); type: cell-based, human
Procedure: To evaluate mitochondrial morphology as a surrogate of cell and mitochondrial viability, hESC-CMs were incubated in B27+/RPMI−1640 media containing 50 nmol/L MitoTracker Deep Red (MTDR) (Thermo Fisher Scientific, USA), and 1 μg/ml Hoechst 33342 (Thermo Fisher Scientific, USA) for 20 minutes. Microscopic images were acquired using DMi8s Research Inverted Thunder Imager Live Cell System (Leica, Germany). For MTDR and Hoechst 33342 imaging, excitation wavelengths of […] and 480 nm, respectively, were used. Mitochondrial morphology was classified into three categories: i) elongated, ii) punctate, and iii) perinuclear. Nuclear morphology was classified as either condensed or normal.

C57BL/6J male mice [4] = type: in vivo, mouse
Procedure: (§1) Recombinant human GDF15/MIC-1 protein (CHO-derived) was purchased from PeproTech Inc. (Cranbury, USA) and described in Example 1. […] For in vitro studies, solid lyophilized powder of these two drugs were solubilized at the recommended concentrations in sterile water, and separate aliquots were made and frozen until thawing prior to addition to cell cultures. For in vivo studies, all agents were dissolved in […] normal saline according to the required concentrations (doxorubicin, 5 mg/kg; GDF15, 0.5 mg/kg; dexrazoxane, […]), and the final volume of each intraperitoneal injection was 100 μl. The recommended dose ratio of dexrazoxane to doxorubicin was 10 to 1. In the following examples, 5 mg/kg of doxorubicin was used which correspond to 50 mg/kg of dexrazoxane. The FDA recommends that dexrazoxane be injected within 0.5 hour prior to doxorubicin infusion in individuals. This was followed in the same manner when applying to the test animals.
To induce cardiotoxicity in the mouse, four weekly intraperitoneal injections of doxorubicin at 5 mg/kg were administered. After one dose of doxorubicin at 5-6 mg/kg in a mouse, the level of exposure has been estimated to be similar to that of a human individual being given a standard dose of doxorubicin at approximately 60 mg/m^2. […]
The image processing and analysis software, ImageJ version 1.53K, was used for evaluation of histopathology from mouse experiments. For Masson's trichrome staining, the acquired images were converted from color to grayscale using ImageJ, the blue-stained collagen were segmented (separated) using thresholding, and the threshold areas in a representative microscopic field were quantified. […] Cells containing brown staining (TUNEL-positive cells) were counted in a representative microscopic field for each mouse in each group.

C57BL/6J male mice [5] = type: in vivo, mouse; remark: listed apart in the source
Procedure: as §1
To induce cardiotoxicity in the mouse, four weekly intraperitoneal injections of doxorubicin at 5 mg/kg were administered. After one dose of doxorubicin at 5-6 mg/kg in a mouse, the level of exposure has been estimated to be similar to that of a human individual being given a standard dose of doxorubicin at approximately 60 mg/m^2. Previous studies have shown that mice injected with doxorubicin once a week at 5 mg/kg for four weeks developed cardiotoxicity, as evidenced by decreased ventricular ejection fraction, cardiomyocyte apoptosis, histopathological changes consistent with doxorubicin-induced myocardial damage, and increased mortality rate, compared with the control group.
The hearts of mice were collected after sacrifice and fixed in 4% paraformaldehyde overnight, followed by paraffin embedding. Afterwards the hearts were cut into 4 μm thick slices. Sections were deparaffinized and rehydrated using sequential immersion in 100% alcohol, 95% alcohol and 70% alcohol for 15 minutes each. […]

[6] = 300 ng/ml GDF15 pretreatment, hESC-CMs exposed to doxorubicin

| Compound | sarcomere structure (α-actinin immunostaining) (hESC-CMs [1]; hESC-CMs exposed to Dox alone) | expression of genes important for mitochondrial function (hESC-CMs [2]; hESC-CMs, doxorubicin alone) | punctation or perinuclear changes of mitochondria (hESC-CMs [3]; doxorubicin-treated cells, no pretreatment, untreated control 5.4±4.2%) | elongated mitochondria (proportion of hESC-CMs) (hESC-CMs [3]; doxorubicin-treated cells, no pretreatment, untreated control 94.6±5.8%) | cardiac fibrosis (Masson's trichrome) (C57BL/6J male mice [4]; mouse, in vivo) | myocardial histopathology (hematoxylin and eosin) (C57BL/6J male mice [5]; mouse, in vivo) | sarcomere structure (α-actinin immunostaining) (hESC-CMs [1]; hESC-CMs, agent only, no doxorubicin) | sarcomeric damage (α-actinin immunostaining) (hESC-CMs [1]; hESC-CMs, pretreatment preceding doxorubicin) | expression of genes important for mitochondrial function (hESC-CMs [2]; hESC-CMs pretreated with GDF15 prior to doxorubicin exposure) | elongated mitochondria (hESC-CMs [3]; [6]) | perinuclear mitochondria (hESC-CMs [3]; [6]) | mitochondrial integrity compared with dexrazoxane (hESC-CMs [3]; hESC-CMs, pretreatment in the presence of Dox) | cardiac fibrosis (Masson's trichrome) (C57BL/6J male mice [4]; mice, pretreatment before doxorubicin, versus doxorubicin only) | myocardial histopathology (hematoxylin and eosin) (C57BL/6J male mice [5]; mice, pretreatment before doxorubicin) |
| --- | --- | --- | --- | --- | --- | --- | --- | --- | --- | --- | --- | --- | --- | --- |
| COc1cccc2c1C(=O)c1c(O)c3c(c(O)c1C2=O)C[C@@](O)(C(=O)CO)C[C@@H]3OC1C[C@H](N)[C@H](O)[C@H](C)O1.Cl (stereo partly drawn) [Dox, (8S,10S)-10-[(3-Amino-2,3,6-trideoxy-L-lyxohexopyranosyl)oxy]-7,8,9,10-tetrahydro-6,8,11-trihydroxy-8-(hydroxyacetyl)-1-methoxynaphthacene-5,12-dione hydrochloride, reference compound] | considerable disruption of sarcomere structure and nuclear condensation | suppressed | 47.3±12.6% | 24.5±17.1% | diffuse myocardial interstitial fibrosis as well as perivascular fibrosis | myocardial structural disarray, and microfibrillar disruption and disorganization |  |  |  |  |  |  |  |  |
| GDF15: commercially available recombinant human GDF-15 protein (PeproTech 120-28C), CHO cell-derived, SEQ ID NO: 1 |  |  |  |  |  |  | well-organized, striated sarcomeres | sarcomeric damage was evidently attenuated | improved | 62.5±11.0% | 13.2±14.7% | performed similarly to dexrazoxane | visually and quantitatively reduced | similarly improved |
